Results as given in patent publication US7322369B2, “Methods of detaching microorganisms from, or of inhibiting microbial attachment to, animal or poultry carcasses or seafood or parts thereof” (priority 2000, dated 2008).
Counter-ions that a name gives are not always drawn.

Columns and labels:
[1] = system: bacteria bound to collagen; assay: Biosensor detachment of bacteria bound to collagen; format: binding; conditions: 0.5M arginine, phosphoric acid 0.1M, HCl 0.1M, citric acid 0.5M
From the text: Use of Guanidine, creatine and arginine: Guanidine is a strong cytotoxic compound and can not be used in large quantities in food plants or slaughter operations. […] However, its use may be limited in the laboratory for analysis of food tissues. Therefore, a substitute for guanidine for detachment of pathogens from food carcasses was investigated. Guanidine is structurally related to creatine and arginine with a guanidyl moeity in their molecules. […] It has been shown that creatine hydrolyzes upon dissolution in water or buffer converting it to creatinine (methylglycocyamidine), a cyclic product and an end product of creatine metabolism. […] Arginine is an essential amino acid for children but not for adults. It is non-essential for adults because it can be derived from proteins in the diet. It is also inexpensive and can be obtained in bulk. Phosphoric acid (0.1M), HCl (0.1M) and citric acid (0.5M) had no effect in the detachment studies.

Salmonella = assay: Detachment of Salmonella in sandwich immunoassay (biosensor); format: binding; conditions: sequential .75M Arginine, 6M Guanidine, 0.25 NaCl + 0.05% Tween 80
E. coli 0157 = assay: Detachment of E. coli O157 in sandwich immunoassay (biosensor); format: binding; conditions: sequential .75M Arginine, then 0.25 NaCl + 0.05%Tween 80
E. coli O157:H7 surface = assay: Biosensor inhibition of collagen binding to E. coli O157:H7 surface; conditions: 12 trials
From the text: (§1) Biosensor Studies: A novel approach to study bacterial attachment to animal carcass was designed. The studies led to a development of a biosensor method to study binding of extracellular matrix components to the surface of immobilized bacteria. This novel approach utilized immobilized whole E. coli cells. This approach allowed the study of the binding of the lipopolysaccharides and other bacterial surface epitopes without altering their chemical structure. Conditions for immobilization and determination of the bacterial cell surface binding properties were initially assessed with anti-E. coli 0157:H7 antibody (Medina et al. (1997), Real-time analysis of antibody binding interactions with immobilized E. coli O157:H7, Biotechnology Techniques, Vol. 11 (3): 173-176). The bacterial surface was bound with an antibody produced against a heat-killed bacteria. […] The binding interactions of polysulfated polysaccharides such as heparan sulfate and iota, lambda and kappa carrageenans were determined with the extracellular matrix proteins (ECM) and the immobilized E. coli O157:H7 cells. […]

E. coli and Salmonella = assay: Biosensor kinetics of bacteria-collagen binding (E. coli and Salmonella pooled)
From the text: as §1

[2] = system: Salmonella typhimurium Sensor Surface; assay: Biosensor inhibition of collagen binding to Salmonella typhimurium sensor surface; conditions: 12 trials
bacteria = assay: Bactericidal effect; format: cell-based; conditions: pH 2.5
From the text: The present invention also includes a method of quantifying microorganisms (e.g., bacteria) on carcasses or parts thereof. To enhance detachment of microorganisms (e.g., bacteria) for sampling: Treatment of animal and poultry carcass or seafood with polysulfated polysaccharides or carboxymethyl cellulose followed by guanidine or arginine or phosphate buffer and NaCl/non-ionic surfactant may enhance detachment of microorganisms for sampling and analytical purposes. […] At pH 4.8, live bacteria may be recovered with guanidine-HCl. At pH 2.5, guanidine-HCl is bactericidal. Therefore, its use may be limited in the laboratory (FIG. 4). For “in situ” sampling in the slaughter plants, arginine, or phosphate buffer and TWEEN-80/NaCl may be used in place of guanidine (FIG. 5).
Collagen is the major component (40%) of the connective tissues. Results from the scanning electron microscopy studies illustrated the abundance of collagen strands in the fascia and connective tissues (Medina et al. (1999), Scanning Electron Microscopy Studies on Attachment of Escherichia Coli O157:H7 to Bovine Tissues, Presented at 1999 IFT Annual Meeting, Chicago, Ill., July 24-28; Poster at Gordon Research Conference on Molecular Mechanisms of Microbial Adhesions (Aug. 1-6, 1999) and at the 18th Annual Meeting of the Philippine-American Academy of Science and Engineering, Jekyll Is., Ga., Aug. 13-15, 1999). […]

Compound: O=C(O)CC(O)(CC(=O)O)C(=O)O [citric acid]
- detachment of bacteria bound to collagen [1]: no effect

Compound: O=P(O)(O)O [Phosphoric acid]
- detachment of bacteria bound to collagen [1]: no effect

Compound: N=C(N)NCCC[C@H](N)C(=O)O [Arginine, arginine]
- Surface RU removed from the sensor surface (Salmonella; CFU 0): 75 RU
- Surface RU removed from the sensor surface (Salmonella; CFU 10E + 4): 20 RU
- Surface RU removed from the sensor surface (Salmonella; CFU 10E + 5): 32 RU
- Surface RU removed from the sensor surface (Salmonella; CFU 10E + 6): 48 RU
- Surface RU removed from the sensor surface (Salmonella; CFU 10E + 7): 96 RU
- Surface RU removed from the sensor surface (E. coli 0157; CFU 0): 99 RU
- Surface RU removed from the sensor surface (E. coli 0157; CFU 10E + 3): 237 RU
- Surface RU removed from the sensor surface (E. coli 0157; CFU 10E + 4): 249 RU
- Surface RU removed from the sensor surface (E. coli 0157; CFU 10E + 5): 275 RU
- Surface RU removed from the sensor surface (E. coli 0157; CFU 10E + 6): 299 RU
- Surface RU removed from the sensor surface (E. coli 0157; CFU 10E + 7): 405 RU
- detachment of bacteria bound to collagen [1]: equally good or better than 1 M guanidine-HCl

Compound: CN(CC(=O)O)C(=N)N [creatine]
- detachment of bacteria bound to collagen [1]: ineffective

Compound: collagen
- affinity constant of collagen to E. coli binding, mean (E. coli O157:H7 surface): 3e+08 M⁻¹
- dissociation constants of bacteria and collagen binding (E. coli and Salmonella): 10^−8 to 10^−9 KDMole
- affinity constants of collagen to E. coli and Salmonella binding, range (E. coli and Salmonella; 12 trials (each)): 10^7 to 10^8 M^−1
- affinity constant of collagen to Salmonella binding, mean [2]: 2.75e+07 M⁻¹

Compound: N=C(N)N [Guanidine, guanidine]
- bactericidal effect (bacteria): bactericidal
- Surface RU removed from the sensor surface (Salmonella; CFU 0): −137 RU
- Surface RU removed from the sensor surface (Salmonella; CFU 10E + 4): −100 RU
- Surface RU removed from the sensor surface (Salmonella; CFU 10E + 5): −54 RU
- Surface RU removed from the sensor surface (Salmonella; CFU 10E + 6): −22 RU
- Surface RU removed from the sensor surface (Salmonella; CFU 10E + 7): −32 RU
- detachment of bacteria bound to collagen [1]: very effective detachment agent

Compound: Cl [HCl]
- detachment of bacteria bound to collagen [1]: no effect
